The record followed here is ChEMBL document CHEMBL1131356, “New generation dopaminergic agents. 2. Discovery of 3-OH-phenoxyethylamine and 3-OH-N1-phenylpiperazine dopaminergic templates” (Bioorg Med Chem Lett, 1998).

Assay [1] has as its target T1, D(4) dopamine receptor (Homo sapiens, UniProt P21917).
T1 sequence (P21917 whole entry): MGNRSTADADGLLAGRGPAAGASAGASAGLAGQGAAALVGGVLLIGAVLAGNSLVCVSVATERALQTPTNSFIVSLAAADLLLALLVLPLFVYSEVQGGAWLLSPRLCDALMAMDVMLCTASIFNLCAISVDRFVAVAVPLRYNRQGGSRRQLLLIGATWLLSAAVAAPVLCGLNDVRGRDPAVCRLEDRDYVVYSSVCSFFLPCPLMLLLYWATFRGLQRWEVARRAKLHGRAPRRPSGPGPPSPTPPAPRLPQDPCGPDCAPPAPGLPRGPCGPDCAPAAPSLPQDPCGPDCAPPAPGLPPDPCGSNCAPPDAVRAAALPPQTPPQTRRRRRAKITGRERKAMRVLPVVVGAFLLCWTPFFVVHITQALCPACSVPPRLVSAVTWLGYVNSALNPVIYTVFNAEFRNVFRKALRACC
Briefly: Binding affinity towards human cloned dopamine (hD4.4) receptor expressed in CHO cells using [3H]spiperone as radioligand. In kind it is cell-based.

Another assay concerns the target D(3) dopamine receptor (Homo sapiens, UniProt P35462). The assay can be described thus: biochemical.
In assay [2] the target is T2, D(2) dopamine receptor (Rattus norvegicus, UniProt P61169).
T2 sequence (P61169 whole entry): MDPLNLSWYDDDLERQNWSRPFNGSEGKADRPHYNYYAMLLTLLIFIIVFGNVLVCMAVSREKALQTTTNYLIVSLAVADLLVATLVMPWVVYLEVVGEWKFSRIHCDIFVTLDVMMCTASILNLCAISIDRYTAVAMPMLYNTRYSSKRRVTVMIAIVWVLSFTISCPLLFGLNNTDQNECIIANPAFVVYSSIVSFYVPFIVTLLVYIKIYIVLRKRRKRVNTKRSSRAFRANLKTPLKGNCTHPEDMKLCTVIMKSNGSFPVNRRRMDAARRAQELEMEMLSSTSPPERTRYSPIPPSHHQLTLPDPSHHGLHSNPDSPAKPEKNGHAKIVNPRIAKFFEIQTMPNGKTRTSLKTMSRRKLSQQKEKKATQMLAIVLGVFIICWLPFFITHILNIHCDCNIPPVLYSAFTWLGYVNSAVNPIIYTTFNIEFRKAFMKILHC
Description: Agonistic activity towards dopamine D2 receptor using radioligand [3H]quinpirole in rat striatal membranes
Assay [3] has as its target D(2) dopamine receptor (Homo sapiens, UniProt P14416). The assay can be described thus: biochemical.
Description: Binding affinity towards human cloned dopamine (hD2s) receptors expressed in CHO cell membranes using [3H]spiperone
The target of assay [4] is T2, D(2) dopamine receptor. This is another data set of the same source.
Description: Antagonistic activity towards dopamine D2 receptor using radioligand [3H]spiperone in rat striatal membranes
In assay [5] the target is T3, 5-hydroxytryptamine receptor 1A (Mus musculus, UniProt Q64264).
T3 sequence (Q64264 whole entry): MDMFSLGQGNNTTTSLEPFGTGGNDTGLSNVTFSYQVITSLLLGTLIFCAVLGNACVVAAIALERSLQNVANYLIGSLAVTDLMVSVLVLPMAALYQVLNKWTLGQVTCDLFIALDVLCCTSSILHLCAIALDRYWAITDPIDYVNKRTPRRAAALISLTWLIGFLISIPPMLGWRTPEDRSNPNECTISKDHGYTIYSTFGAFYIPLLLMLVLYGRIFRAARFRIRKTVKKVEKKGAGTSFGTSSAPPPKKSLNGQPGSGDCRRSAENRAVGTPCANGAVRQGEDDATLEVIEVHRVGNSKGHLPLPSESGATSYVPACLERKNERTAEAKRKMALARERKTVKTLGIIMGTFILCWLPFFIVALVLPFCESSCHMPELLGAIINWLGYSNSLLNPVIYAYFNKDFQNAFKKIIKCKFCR
The assay can be described thus: Binding affinity for 5-hydroxytryptamine 1A receptor.

The next assay deals with Mus musculus. The assay can be described thus: Dose required to inhibit locomotor activity in mice when administered subcutaneously. It is filed as functional. Conditions: sc.
Assay [6] concerns the target T4, Adrenergic receptor alpha-1 (Homo sapiens, UniProt P35348+P25100+P35368).
T4 sequence (P35348 whole entry): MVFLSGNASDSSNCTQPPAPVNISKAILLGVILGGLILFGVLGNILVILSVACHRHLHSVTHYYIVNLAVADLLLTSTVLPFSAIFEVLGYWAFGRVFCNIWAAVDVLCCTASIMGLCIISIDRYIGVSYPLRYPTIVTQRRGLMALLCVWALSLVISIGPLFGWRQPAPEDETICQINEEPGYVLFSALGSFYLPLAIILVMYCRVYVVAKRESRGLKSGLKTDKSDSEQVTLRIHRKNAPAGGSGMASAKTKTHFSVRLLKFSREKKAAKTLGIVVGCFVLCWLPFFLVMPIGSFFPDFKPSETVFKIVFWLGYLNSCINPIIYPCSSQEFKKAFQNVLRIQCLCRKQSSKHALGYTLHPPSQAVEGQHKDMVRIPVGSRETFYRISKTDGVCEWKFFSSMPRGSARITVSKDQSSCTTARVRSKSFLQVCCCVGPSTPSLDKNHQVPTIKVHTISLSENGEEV
T4 sequence (P25100 whole entry): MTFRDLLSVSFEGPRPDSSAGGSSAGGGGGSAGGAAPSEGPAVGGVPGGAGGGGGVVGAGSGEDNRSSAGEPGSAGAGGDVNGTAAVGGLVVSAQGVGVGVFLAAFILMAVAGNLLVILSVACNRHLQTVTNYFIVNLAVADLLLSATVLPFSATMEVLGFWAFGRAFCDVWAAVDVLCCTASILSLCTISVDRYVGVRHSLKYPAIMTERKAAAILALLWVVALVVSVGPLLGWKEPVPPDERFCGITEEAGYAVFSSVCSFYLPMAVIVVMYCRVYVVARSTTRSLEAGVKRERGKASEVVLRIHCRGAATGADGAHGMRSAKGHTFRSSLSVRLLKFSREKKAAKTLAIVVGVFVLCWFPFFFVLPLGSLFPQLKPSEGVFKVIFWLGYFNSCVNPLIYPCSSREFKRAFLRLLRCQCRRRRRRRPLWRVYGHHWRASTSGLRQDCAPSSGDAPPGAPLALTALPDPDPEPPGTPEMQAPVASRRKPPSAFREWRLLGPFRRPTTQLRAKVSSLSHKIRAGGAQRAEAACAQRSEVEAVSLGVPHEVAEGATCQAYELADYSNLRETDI
T4 sequence (P35368 whole entry): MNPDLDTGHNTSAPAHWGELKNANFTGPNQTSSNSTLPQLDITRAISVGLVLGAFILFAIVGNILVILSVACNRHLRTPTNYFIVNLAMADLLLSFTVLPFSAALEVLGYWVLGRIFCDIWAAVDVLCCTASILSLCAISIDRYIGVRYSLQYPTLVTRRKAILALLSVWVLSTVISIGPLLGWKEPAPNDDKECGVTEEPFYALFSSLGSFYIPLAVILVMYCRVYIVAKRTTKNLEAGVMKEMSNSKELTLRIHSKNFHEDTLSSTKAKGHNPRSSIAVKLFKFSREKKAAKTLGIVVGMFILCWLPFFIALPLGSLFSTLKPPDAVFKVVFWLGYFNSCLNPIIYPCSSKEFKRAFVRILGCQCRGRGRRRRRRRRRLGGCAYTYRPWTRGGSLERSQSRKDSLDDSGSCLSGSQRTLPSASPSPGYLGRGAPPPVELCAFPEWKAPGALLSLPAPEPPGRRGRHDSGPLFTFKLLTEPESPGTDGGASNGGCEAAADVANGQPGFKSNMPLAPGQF
The assay can be described thus: Binding affinity for Alpha-1 adrenergic receptor. It is filed as protein assay.

Assay [7] addresses T1, D(4) dopamine receptor. The assay can be described thus: Binding affinity towards human cloned Dopamine receptor D4.4 expressed in CHO cells using [3H]spiperone as radioligand. It is filed as cell-based.

Sequence of D(2) dopamine receptor (Homo sapiens, UniProt P14416) (P14416 whole entry): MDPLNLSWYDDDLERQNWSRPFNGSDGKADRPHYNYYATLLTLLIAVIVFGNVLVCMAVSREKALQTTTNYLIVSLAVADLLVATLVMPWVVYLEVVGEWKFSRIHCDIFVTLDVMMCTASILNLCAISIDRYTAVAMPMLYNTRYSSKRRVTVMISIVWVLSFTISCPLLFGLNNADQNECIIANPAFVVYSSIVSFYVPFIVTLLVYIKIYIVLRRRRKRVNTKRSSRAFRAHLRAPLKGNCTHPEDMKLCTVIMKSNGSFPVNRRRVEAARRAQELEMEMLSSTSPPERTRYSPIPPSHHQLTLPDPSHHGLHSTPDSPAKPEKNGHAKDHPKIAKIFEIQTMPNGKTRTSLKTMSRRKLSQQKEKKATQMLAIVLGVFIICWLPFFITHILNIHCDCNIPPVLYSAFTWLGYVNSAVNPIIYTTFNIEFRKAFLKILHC
Sequence of D(3) dopamine receptor (P35462 whole entry): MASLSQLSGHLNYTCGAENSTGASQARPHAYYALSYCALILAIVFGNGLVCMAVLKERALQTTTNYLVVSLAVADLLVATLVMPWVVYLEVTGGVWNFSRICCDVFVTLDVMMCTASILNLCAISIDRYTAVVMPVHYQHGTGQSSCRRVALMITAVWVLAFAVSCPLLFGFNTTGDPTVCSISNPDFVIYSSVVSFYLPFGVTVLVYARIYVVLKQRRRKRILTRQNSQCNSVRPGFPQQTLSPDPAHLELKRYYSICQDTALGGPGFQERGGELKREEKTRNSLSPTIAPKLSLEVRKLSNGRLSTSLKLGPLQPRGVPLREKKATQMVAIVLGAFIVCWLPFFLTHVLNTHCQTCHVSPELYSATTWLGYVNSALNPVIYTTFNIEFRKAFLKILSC
Description for D(3) dopamine receptor: Binding affinity towards human cloned dopamine (hD3) receptor expressed in CHO cells using [3H]spiperone as radioligand

For orientation: Ki means a dissociation constant, usually derived from enzyme kinetics or from competition with a known ligand. A lower Ki goes with tighter binding. Consider `Oc1ccc(OCCNCc2ccccc2)cc1`, for which the inhibition constant (Ki) at D(4) dopamine receptor [1] was 277 nM; on D(3) dopamine receptor, > 5000 nM; on D(2) dopamine receptor [2], 113 nM; on D(2) dopamine receptor [3], > 10000 nM.
Take `Oc1ccccc1OCCNCc1ccccc1`: the Ki on D(4) dopamine receptor [1] turned out to be 297 nM; at D(3) dopamine receptor it was 281 nM; on D(2) dopamine receptor [4] it was 191 nM; on D(2) dopamine receptor [2], 9.6 nM; at D(2) dopamine receptor [3] it was 456 nM.
Broadly, the ED50 is the midpoint of the dose-response relation. A high value points to weaker potency. Take `Oc1cccc(OCCNCc2ccccc2)c1`: the Ki amounted to 1780 nM in assay [5]; 80.6 nM on D(4) dopamine receptor [1]; 11 nM on D(3) dopamine receptor; 101 nM on D(2) dopamine receptor [4]; 3.6 nM at D(2) dopamine receptor [2]; 75.8 nM at D(2) dopamine receptor [3]. Moreover, the Ki in assay [6] is reported as 5291 nM. The compound also gave an ED50 in the assay with Mus musculus of 0.08 mg/kg.
In the case of `CS(=O)(=O)Nc1cc(OCCNCc2ccccc2)ccc1F`, the Ki on D(3) dopamine receptor was > 5000 nM; on D(2) dopamine receptor [4], 24.1 nM; on D(2) dopamine receptor [2], 7.9 nM; at D(2) dopamine receptor [3], > 10000 nM.
On to `Nc1cc(OCCNCc2ccccc2)ccc1Cl`, for which the Ki is 27.2 nM on D(4) dopamine receptor [1], > 1000 nM at D(3) dopamine receptor, 237 nM on D(2) dopamine receptor [2] and > 1000 nM at D(2) dopamine receptor [3].
Turning to `Oc1ccccc1N1CCN(Cc2ccccc2)CC1`, the Ki on D(4) dopamine receptor [7] was > 400 nM; at D(3) dopamine receptor it was > 400 nM; on D(2) dopamine receptor [4], 118 nM; at D(2) dopamine receptor [2], 64.7 nM; at D(2) dopamine receptor [3], > 300 nM.
With `CS(=O)(=O)Nc1cc(OCCNCc2ccccc2)ccc1Cl`, the Ki on D(3) dopamine receptor came out at 11 nM; on D(2) dopamine receptor [4] it was 3 nM; at D(2) dopamine receptor [2] it was 1.6 nM; on D(2) dopamine receptor [3], 75.8 nM.
Turning to `Oc1cccc(N2CCN(Cc3ccccc3)CC2)c1`, the inhibition constant Ki in [5] is > 1000 nM; at D(4) dopamine receptor [7] it was > 400 nM; on D(3) dopamine receptor it was 28.9 nM; in [6] it was > 1000 nM. In the assay on Mus musculus, this compound displayed an ED50 of 1.4 mg/kg.
Take `c1ccc(CN2CCN(c3ccccc3)CC2)cc1`: the Ki is 267 nM on D(4) dopamine receptor [7]; > 400 nM at D(3) dopamine receptor; 124 nM at D(2) dopamine receptor [4]; 16.2 nM at D(2) dopamine receptor [2]; > 300 nM on D(2) dopamine receptor [3].
`Oc1ccc(N2CCN(Cc3ccccc3)CC2)cc1`: the Ki on D(4) dopamine receptor [7] is 91.8 nM; on D(3) dopamine receptor, > 400 nM; on D(2) dopamine receptor [2] it was 120 nM; on D(2) dopamine receptor [3], > 300 nM.
In the case of `CS(=O)(=O)Nc1cc(OCCNCc2cccs2)ccc1F`, the Ki at D(4) dopamine receptor [7] was > 400 nM; on D(3) dopamine receptor, > 400 nM; on D(2) dopamine receptor [4] it was 11.7 nM; at D(2) dopamine receptor [2], 19.7 nM; on D(2) dopamine receptor [3] it was > 300 nM.
`CS(=O)(=O)Nc1cccc(OCCNCc2ccccc2)c1`: the Ki amounted to 500 nM at D(4) dopamine receptor [1]; 42.5 nM at D(3) dopamine receptor; 29.3 nM at D(2) dopamine receptor [4]; 4.4 nM on D(2) dopamine receptor [2]; 37.6 nM on D(2) dopamine receptor [3].
The corresponding values for `c1ccc(CNCCOc2ccccc2)cc1` are 94 nM, > 400 nM, 241 nM, 68.4 nM and > 300 nM.
The corresponding values for `CS(=O)(=O)Nc1cc(OCCNCc2cccs2)ccc1Cl` are 137 nM, 27.8 nM, 6 nM, 2.6 nM and 9 nM.
